Data from PubChem BioAssay AID2060484 (Molecular Pharmacology Branch, DTP, NCI, 2025).

System: SUM149PT spheroids with HUVEC/MSC, viability
Assay: Anticancer human tumor SUM149PT cell line growth inhibition [GQUAD];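 also: spheroids exposed to drugs for seven days before readout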;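 as to viability, T/C: percent viability relative to DMSO vehicle control taken as 100%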
Settings: for IC50: curve of first compound; for viability, T/C: stronger effect = lower value
Outline: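 Viability of tumor cells grown as complex spheroids with endothelial and stromal cells, exposed to drug combinations. Top concentration at or near clinical Cmax (else 10 microM), diluted in half-log increments.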

[1] = second compound 0.0316 µM, first compound 0.0316 µM
[2] = second compound 0.0316 µM, first compound 0.1 µM
[3] = second compound 0.0316 µM, first compound 0.316 µM
[4] = second compound 0.0316 µM, first compound 1 µM
[5] = second compound 0.0316 µM, first compound 3.16 µM
[6] = second compound 0.0316 µM, first compound 10 µM
[7] = second compound 0.1 µM, first compound 0.0316 µM
[8] = second compound 0.1 µM, first compound 0.1 µM
[9] = second compound 0.1 µM, first compound 0.316 µM
[10] = second compound 0.1 µM, first compound 1 µM
[11] = second compound 0.1 µM, first compound 3.16 µM
[12] = second compound 0.1 µM, first compound 10 µM
[13] = second compound 0.316 µM, first compound 0.0316 µM
[14] = second compound 0.316 µM, first compound 0.1 µM
[15] = second compound 0.316 µM, first compound 0.316 µM
[16] = second compound 0.316 µM, first compound 1 µM
[17] = second compound 0.316 µM, first compound 3.16 µM
[18] = second compound 0.316 µM, first compound 10 µM
[19] = second compound 1 µM, first compound 0.0316 µM
[20] = second compound 1 µM, first compound 0.1 µM
[21] = second compound 1 µM, first compound 0.316 µM
[22] = second compound 1 µM, first compound 1 µM
[23] = second compound 1 µM, first compound 3.16 µM
[24] = second compound 1 µM, first compound 10 µM
[25] = second compound 3.16 µM, first compound 0.0316 µM
[26] = second compound 3.16 µM, first compound 0.1 µM
[27] = second compound 3.16 µM, first compound 0.316 µM
[28] = second compound 3.16 µM, first compound 1 µM
[29] = second compound 3.16 µM, first compound 3.16 µM
[30] = second compound 3.16 µM, first compound 10 µM
[31] = second compound 10 µM, first compound 0.0316 µM
[32] = second compound 10 µM, first compound 0.1 µM
[33] = second compound 10 µM, first compound 0.316 µM
[34] = second compound 10 µM, first compound 1 µM
[35] = second compound 10 µM, first compound 3.16 µM
[36] = second compound 10 µM, first compound 10 µM

## COc1ccc([C@@H](O)c2cc(-c3ncnc4cc(N5CCOCC5)ccc34)c(F)cc2Cl)nn1 + Cc1cnc(CNC(=O)c2c(=O)c3ccc(N4CCCN(C)CC4)nc3n3c2sc2ccccc23)cn1
Second compound 0.0316 µM
  IC50: 385 nM
Second compound 0.1 µM
  IC50: 142 nM
Second compound 0.316 µM
  IC50: 61.1 nM
Second compound 1 µM
  IC50: < 31.6 nM
Second compound 3.16 µM
  IC50: < 31.6 nM
Second compound 10 µM
  IC50: < 31.6 nM
[1]
  viability, T/C: 88.4%
[2]
  viability, T/C: 68.2%
[3]
  viability, T/C: 55.8%
[4]
  viability, T/C: 35.8%
[5]
  viability, T/C: 24.5%
[6]
  viability, T/C: 18.5%
[7]
  viability, T/C: 65.8%
[8]
  viability, T/C: 51.8%
[9]
  viability, T/C: 44.1%
[10]
  viability, T/C: 25.5%
[11]
  viability, T/C: 21.5%
[12]
  viability, T/C: 16.3%
[13]
  viability, T/C: 53%
[14]
  viability, T/C: 48.2%
[15]
  viability, T/C: 36%
[16]
  viability, T/C: 24.5%
[17]
  viability, T/C: 19.2%
[18]
  viability, T/C: 14.8%
[19]
  viability, T/C: 43.4%
[20]
  viability, T/C: 38.9%
[21]
  viability, T/C: 35.4%
[22]
  viability, T/C: 23.2%
[23]
  viability, T/C: 19.6%
[24]
  viability, T/C: 15.7%
[25]
  viability, T/C: 34.5%
[26]
  viability, T/C: 34.1%
[27]
  viability, T/C: 29.4%
[28]
  viability, T/C: 20.7%
[29]
  viability, T/C: 17.6%
[30]
  viability, T/C: 13.3%
[31]
  viability, T/C: 0.17%
[32]
  viability, T/C: 1.03%
[33]
  viability, T/C: 0.2%
[34]
  viability, T/C: 0.32%
[35]
  viability, T/C: 1.7%
[36]
  viability, T/C: 1.3%

## CC(C)(O)C1CCC(Nc2ccc3ncc(-c4cccc(C(F)(F)F)c4)n3n2)CC1 (stereo not drawn) + CN(C)c1ccc(Nc2c3ccc(NC(=O)CCN4CCCC4)cc3nc3cc(NC(=O)CCN4CCCC4)ccc23)cc1
Second compound 0.0316 µM
  IC50: > 10000 nM
Second compound 0.1 µM
  IC50: > 10000 nM
Second compound 0.316 µM
  IC50: 1760 nM
Second compound 1 µM
  IC50: 1550 nM
Second compound 3.16 µM
  IC50: 1250 nM
Second compound 10 µM
  IC50: 789 nM
[1]
  viability, T/C: 98.7%
[2]
  viability, T/C: 84.6%
[3]
  viability, T/C: 75%
[4]
  viability, T/C: 61.5%
[5]
  viability, T/C: 53.6%
[6]
  viability, T/C: 54.2%
[7]
  viability, T/C: 102%
[8]
  viability, T/C: 92.8%
[9]
  viability, T/C: 77.8%
[10]
  viability, T/C: 58%
[11]
  viability, T/C: 49.1%
[12]
  viability, T/C: 54.3%
[13]
  viability, T/C: 86.4%
[14]
  viability, T/C: 89.2%
[15]
  viability, T/C: 76.5%
[16]
  viability, T/C: 52.8%
[17]
  viability, T/C: 44.7%
[18]
  viability, T/C: 50%
[19]
  viability, T/C: 89.6%
[20]
  viability, T/C: 82%
[21]
  viability, T/C: 78.2%
[22]
  viability, T/C: 57.3%
[23]
  viability, T/C: 35.9%
[24]
  viability, T/C: 42.2%
[25]
  viability, T/C: 81.6%
[26]
  viability, T/C: 78.6%
[27]
  viability, T/C: 74.7%
[28]
  viability, T/C: 54.1%
[29]
  viability, T/C: 33.8%
[30]
  viability, T/C: 37.6%
[31]
  viability, T/C: 78.2%
[32]
  viability, T/C: 73.1%
[33]
  viability, T/C: 66.7%
[34]
  viability, T/C: 47%
[35]
  viability, T/C: 20.9%
[36]
  viability, T/C: 18.3%

## C=CC(=O)N1CCN(c2nc(=O)n(-c3c(C)ccnc3C(C)C)c3nc(-c4c(O)cccc4F)c(F)cc23)C(C)C1 (stereo not drawn) + CN(C)c1ccc(Nc2c3ccc(NC(=O)CCN4CCCC4)cc3nc3cc(NC(=O)CCN4CCCC4)ccc23)cc1
Second compound 0.0316 µM
  IC50: > 10000 nM
Second compound 0.1 µM
  IC50: > 10000 nM
Second compound 0.316 µM
  IC50: > 10000 nM
Second compound 1 µM
  IC50: > 10000 nM
Second compound 3.16 µM
  IC50: > 10000 nM
Second compound 10 µM
  IC50: > 10000 nM
[1]
  viability, T/C: 106%
[2]
  viability, T/C: 101%
[3]
  viability, T/C: 105%
[4]
  viability, T/C: 110%
[5]
  viability, T/C: 122%
[6]
  viability, T/C: 101%
[7]
  viability, T/C: 99.7%
[8]
  viability, T/C: 102%
[9]
  viability, T/C: 98.2%
[10]
  viability, T/C: 113%
[11]
  viability, T/C: 115%
[12]
  viability, T/C: 108%
[13]
  viability, T/C: 96.1%
[14]
  viability, T/C: 93.9%
[15]
  viability, T/C: 110%
[16]
  viability, T/C: 114%
[17]
  viability, T/C: 111%
[18]
  viability, T/C: 101%
[19]
  viability, T/C: 96.5%
[20]
  viability, T/C: 86.5%
[21]
  viability, T/C: 95.4%
[22]
  viability, T/C: 103%
[23]
  viability, T/C: 113%
[24]
  viability, T/C: 96.7%
[25]
  viability, T/C: 88.3%
[26]
  viability, T/C: 89.9%
[27]
  viability, T/C: 103%
[28]
  viability, T/C: 104%
[29]
  viability, T/C: 106%
[30]
  viability, T/C: 85.4%
[31]
  viability, T/C: 86.8%
[32]
  viability, T/C: 82.9%
[33]
  viability, T/C: 92.6%
[34]
  viability, T/C: 90%
[35]
  viability, T/C: 100%
[36]
  viability, T/C: 69.2%

## C=CCn1c(=O)c2cnc(Nc3ccc(N4CCN(C)CC4)cc3)nc2n1-c1cccc(C(C)(C)O)n1 + Cc1cnc(CNC(=O)c2c(=O)c3ccc(N4CCCN(C)CC4)nc3n3c2sc2ccccc23)cn1
Second compound 0.0316 µM
  IC50: 68.6 nM
Second compound 0.1 µM
  IC50: < 31.6 nM
Second compound 0.316 µM
  IC50: < 31.6 nM
Second compound 1 µM
  IC50: < 31.6 nM
Second compound 3.16 µM
  IC50: < 31.6 nM
Second compound 10 µM
  IC50: < 31.6 nM
[1]
  viability, T/C: 74.3%
[2]
  viability, T/C: 37%
[3]
  viability, T/C: 22.9%
[4]
  viability, T/C: 14.2%
[5]
  viability, T/C: 9.59%
[6]
  viability, T/C: 8.42%
[7]
  viability, T/C: 42.7%
[8]
  viability, T/C: 34.8%
[9]
  viability, T/C: 18.6%
[10]
  viability, T/C: 16.3%
[11]
  viability, T/C: 9.24%
[12]
  viability, T/C: 8.01%
[13]
  viability, T/C: 45.9%
[14]
  viability, T/C: 32.1%
[15]
  viability, T/C: 21.3%
[16]
  viability, T/C: 16.5%
[17]
  viability, T/C: 11.3%
[18]
  viability, T/C: 8.57%
[19]
  viability, T/C: 34.5%
[20]
  viability, T/C: 25.6%
[21]
  viability, T/C: 20.6%
[22]
  viability, T/C: 17.7%
[23]
  viability, T/C: 13.7%
[24]
  viability, T/C: 11.5%
[25]
  viability, T/C: 32.9%
[26]
  viability, T/C: 26.3%
[27]
  viability, T/C: 20.3%
[28]
  viability, T/C: 16.7%
[29]
  viability, T/C: 12.7%
[30]
  viability, T/C: 10.6%
[31]
  viability, T/C: 0.17%
[32]
  viability, T/C: 1.7%
[33]
  viability, T/C: 0.84%
[34]
  viability, T/C: 1.14%
[35]
  viability, T/C: 0.21%
[36]
  viability, T/C: 2.8%
